In ChEMBL document CHEMBL4507287, “Data for DCP probe MRL-650” (2021):

Columns and labels:
Details in all cases: Compound concentration 1000.0 nM
[1] = target: RAC-gamma serine/threonine-protein kinase (Homo sapiens) (UniProt Q9Y243)
[2] = target: ALK tyrosine kinase receptor (Homo sapiens) (UniProt Q9UM73)
[3] = target: Tyrosine-protein kinase Blk (Homo sapiens) (UniProt P51451)
[4] = target: Serine/threonine-protein kinase BRSK1 (Homo sapiens) (UniProt Q8TDC3)
[5] = target: Calcium/calmodulin-dependent protein kinase type II subunit delta (Homo sapiens) (UniProt Q13557)
[6] = target: Cyclin-dependent kinase-like 5 (Homo sapiens) (UniProt O76039)
[7] = target: Serine/threonine-protein kinase Chk2 (Homo sapiens) (UniProt O96017)
Sequence of Serine/threonine-protein kinase Chk2 (Homo sapiens) (O96017 whole entry, canonical isoform): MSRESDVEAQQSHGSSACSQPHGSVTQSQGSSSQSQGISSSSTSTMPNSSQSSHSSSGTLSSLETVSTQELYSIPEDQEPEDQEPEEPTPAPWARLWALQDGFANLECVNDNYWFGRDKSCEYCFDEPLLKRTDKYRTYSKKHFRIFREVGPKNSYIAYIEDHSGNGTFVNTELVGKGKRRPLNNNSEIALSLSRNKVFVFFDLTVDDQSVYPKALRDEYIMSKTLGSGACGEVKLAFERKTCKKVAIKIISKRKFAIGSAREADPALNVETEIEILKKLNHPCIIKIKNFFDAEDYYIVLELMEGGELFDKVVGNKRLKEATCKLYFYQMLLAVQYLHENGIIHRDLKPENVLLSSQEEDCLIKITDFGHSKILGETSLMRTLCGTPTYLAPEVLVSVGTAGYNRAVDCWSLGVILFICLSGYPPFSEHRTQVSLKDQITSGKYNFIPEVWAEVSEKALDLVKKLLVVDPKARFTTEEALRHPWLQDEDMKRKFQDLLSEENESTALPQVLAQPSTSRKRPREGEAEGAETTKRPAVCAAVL

[8] = target: Casein kinase I isoform gamma-2 (Homo sapiens) (UniProt P78368)
[9] = target: Casein kinase II subunit alpha (Homo sapiens) (UniProt P68400)
[10] = target: Epithelial discoidin domain-containing receptor 1 (Homo sapiens) (UniProt Q08345)
[11] = system: Epidermal growth factor receptor (Homo sapiens), P00533 [UNDEFINED MUTATION]
Sequence of Epidermal growth factor receptor (Homo sapiens), P00533 [UNDEFINED MUTATION] (P00533 whole entry, looked up, change not shown): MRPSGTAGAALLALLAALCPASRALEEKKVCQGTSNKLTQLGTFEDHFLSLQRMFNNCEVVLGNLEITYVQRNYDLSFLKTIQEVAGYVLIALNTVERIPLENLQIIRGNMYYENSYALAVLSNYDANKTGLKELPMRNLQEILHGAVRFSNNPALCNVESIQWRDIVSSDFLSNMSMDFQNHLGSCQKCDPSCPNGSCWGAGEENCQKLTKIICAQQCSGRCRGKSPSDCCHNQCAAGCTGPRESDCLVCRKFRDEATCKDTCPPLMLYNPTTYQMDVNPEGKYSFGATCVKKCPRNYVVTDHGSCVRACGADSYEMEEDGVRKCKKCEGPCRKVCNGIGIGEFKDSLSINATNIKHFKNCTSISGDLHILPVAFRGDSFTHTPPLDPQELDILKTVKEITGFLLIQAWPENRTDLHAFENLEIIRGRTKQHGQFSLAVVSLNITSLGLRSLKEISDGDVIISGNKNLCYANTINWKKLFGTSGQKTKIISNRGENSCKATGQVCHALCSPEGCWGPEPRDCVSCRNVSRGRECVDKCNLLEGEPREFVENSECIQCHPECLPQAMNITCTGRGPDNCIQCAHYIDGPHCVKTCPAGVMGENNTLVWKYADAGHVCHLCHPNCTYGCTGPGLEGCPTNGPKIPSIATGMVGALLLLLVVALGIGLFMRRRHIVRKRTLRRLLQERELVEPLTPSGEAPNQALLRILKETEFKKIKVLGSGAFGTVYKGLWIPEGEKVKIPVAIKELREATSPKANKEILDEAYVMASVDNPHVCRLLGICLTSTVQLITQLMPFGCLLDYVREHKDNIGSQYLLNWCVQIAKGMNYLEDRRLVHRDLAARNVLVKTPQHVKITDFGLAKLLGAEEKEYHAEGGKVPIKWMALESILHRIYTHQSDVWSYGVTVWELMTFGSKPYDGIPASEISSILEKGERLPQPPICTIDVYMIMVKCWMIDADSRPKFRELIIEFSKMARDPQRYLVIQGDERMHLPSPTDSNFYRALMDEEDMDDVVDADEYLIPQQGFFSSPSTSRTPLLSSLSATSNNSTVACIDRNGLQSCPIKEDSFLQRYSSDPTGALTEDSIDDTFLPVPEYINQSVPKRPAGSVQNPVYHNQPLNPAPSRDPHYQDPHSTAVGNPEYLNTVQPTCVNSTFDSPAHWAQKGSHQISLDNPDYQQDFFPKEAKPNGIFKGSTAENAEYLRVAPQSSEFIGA

[12] = system: Epidermal growth factor receptor (Homo sapiens), P00533 [UNDEFINED MUTATION]; remark: listed apart in the source
[13] = target: Ephrin type-A receptor 6 (Homo sapiens) (UniProt Q9UF33)
[14] = target: Tyrosine-protein kinase Fer (Homo sapiens) (UniProt P16591)
[15] = target: Tyrosine-protein kinase FRK (Homo sapiens) (UniProt P42685)
[16] = target: Rhodopsin kinase GRK1 (Homo sapiens) (UniProt Q15835)
[17] = target: Inhibitor of nuclear factor kappa-B kinase subunit epsilon (Homo sapiens) (UniProt Q14164)
Sequence of Inhibitor of nuclear factor kappa-B kinase subunit epsilon (Homo sapiens) (Q14164 whole entry): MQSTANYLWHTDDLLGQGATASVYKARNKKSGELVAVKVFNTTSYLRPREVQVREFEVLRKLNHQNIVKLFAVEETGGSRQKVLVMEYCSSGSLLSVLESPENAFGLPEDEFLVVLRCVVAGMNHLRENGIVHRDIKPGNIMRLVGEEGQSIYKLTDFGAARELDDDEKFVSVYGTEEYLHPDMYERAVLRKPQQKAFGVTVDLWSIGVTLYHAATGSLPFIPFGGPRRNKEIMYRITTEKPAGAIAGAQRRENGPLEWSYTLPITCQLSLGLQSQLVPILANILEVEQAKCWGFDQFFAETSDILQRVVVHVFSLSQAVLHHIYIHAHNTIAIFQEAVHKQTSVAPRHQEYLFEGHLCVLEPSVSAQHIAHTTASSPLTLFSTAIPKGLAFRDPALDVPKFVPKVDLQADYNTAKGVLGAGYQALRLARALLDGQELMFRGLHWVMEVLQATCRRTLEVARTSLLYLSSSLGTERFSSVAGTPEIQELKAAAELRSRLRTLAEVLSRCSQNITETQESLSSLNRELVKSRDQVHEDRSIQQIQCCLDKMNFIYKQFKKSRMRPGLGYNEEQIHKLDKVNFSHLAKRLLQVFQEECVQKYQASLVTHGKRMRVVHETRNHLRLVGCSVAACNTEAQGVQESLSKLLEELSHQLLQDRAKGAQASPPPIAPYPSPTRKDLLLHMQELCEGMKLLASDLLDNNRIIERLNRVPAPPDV

[18] = target: Tyrosine-protein kinase JAK2 (Homo sapiens) (UniProt O60674)
[19] = target: Leucine-rich repeat serine/threonine-protein kinase 2 (Homo sapiens) (UniProt Q5S007)
[20] = target: Serine/threonine-protein kinase MAK (Homo sapiens) (UniProt P20794)
[21] = target: MAP/microtubule affinity-regulating kinase 3 (Homo sapiens) (UniProt P27448)
[22] = target: Maternal embryonic leucine zipper kinase (Homo sapiens) (UniProt Q14680)
[23] = target: Tyrosine-protein kinase Mer (Homo sapiens) (UniProt Q12866)
[24] = target: Serine/threonine-protein kinase 4 (Homo sapiens) (UniProt Q13043)
[25] = target: Serine/threonine-protein kinase Nek10 (Homo sapiens) (UniProt Q6ZWH5)
[26] = target: Mitogen-activated protein kinase 13 (Homo sapiens) (UniProt O15264)
[27] = target: Serine/threonine-protein kinase PAK 4 (Homo sapiens) (UniProt O96013)
[28] = target: Platelet-derived growth factor receptor beta (Homo sapiens) (UniProt P09619)
[29] = system: Phosphatidylinositol 4,5-bisphosphate 3-kinase catalytic subunit alpha isoform (Homo sapiens), P42336 [E545K]
[30] = target: Phosphatidylinositol 4-phosphate 5-kinase type-1 gamma (Homo sapiens) (UniProt O60331)
[31] = target: Serine/threonine-protein kinase PLK2 (Homo sapiens) (UniProt Q9NYY3)
[32] = target: Protein kinase C iota type (Homo sapiens) (UniProt P41743)
[33] = system: Proto-oncogene tyrosine-protein kinase receptor Ret (Homo sapiens), P07949 [V804L]
[34] = system: Proto-oncogene tyrosine-protein kinase receptor Ret (Homo sapiens), P07949 [V804M]
[35] = target: Serine/threonine-protein kinase RIO3 (Homo sapiens) (UniProt O14730)
Sequence of Serine/threonine-protein kinase RIO3 (Homo sapiens) (O14730 whole entry): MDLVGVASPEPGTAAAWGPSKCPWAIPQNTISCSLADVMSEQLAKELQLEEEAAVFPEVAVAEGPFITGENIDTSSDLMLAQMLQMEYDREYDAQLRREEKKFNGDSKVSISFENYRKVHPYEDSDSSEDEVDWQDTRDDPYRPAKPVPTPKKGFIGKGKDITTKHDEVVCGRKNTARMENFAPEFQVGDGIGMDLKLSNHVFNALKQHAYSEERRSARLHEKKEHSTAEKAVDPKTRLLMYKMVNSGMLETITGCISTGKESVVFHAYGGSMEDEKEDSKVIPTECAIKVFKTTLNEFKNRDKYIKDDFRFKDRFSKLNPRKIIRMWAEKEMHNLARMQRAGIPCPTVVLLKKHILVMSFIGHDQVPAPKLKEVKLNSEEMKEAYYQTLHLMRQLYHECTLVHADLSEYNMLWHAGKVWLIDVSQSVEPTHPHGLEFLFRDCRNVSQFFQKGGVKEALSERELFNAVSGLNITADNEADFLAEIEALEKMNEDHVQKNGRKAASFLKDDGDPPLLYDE

[36] = target: Receptor-interacting serine/threonine-protein kinase 4 (Homo sapiens) (UniProt P57078)
[37] = target: Serine/threonine-protein kinase Sgk3 (Homo sapiens) (UniProt Q96BR1)
[38] = target: Tyrosine-protein kinase Srms (Homo sapiens) (UniProt Q9H3Y6)
[39] = target: Serine/threonine-protein kinase 16 (Homo sapiens) (UniProt O75716)
Sequence of Serine/threonine-protein kinase 16 (Homo sapiens) (O75716 whole entry): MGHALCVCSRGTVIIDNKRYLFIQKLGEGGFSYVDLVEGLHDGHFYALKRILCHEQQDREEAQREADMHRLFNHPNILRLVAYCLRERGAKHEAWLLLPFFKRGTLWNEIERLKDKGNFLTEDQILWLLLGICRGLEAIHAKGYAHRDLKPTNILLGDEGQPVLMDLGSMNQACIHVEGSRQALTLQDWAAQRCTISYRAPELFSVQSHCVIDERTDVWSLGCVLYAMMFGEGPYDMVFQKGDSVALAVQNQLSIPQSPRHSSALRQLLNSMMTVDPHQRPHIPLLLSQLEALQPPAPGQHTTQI

[40] = target: Serine/threonine-protein kinase 35 (Homo sapiens) (UniProt Q8TDR2)
[41] = target: TGF-beta receptor type-2 (Homo sapiens) (UniProt P37173)
[42] = target: Testis-specific serine/threonine-protein kinase 1 (Homo sapiens) (UniProt Q9BXA7)
[43] = target: Wee1-like protein kinase 2 (Homo sapiens) (UniProt P0C1S8)
Sequence of Wee1-like protein kinase 2 (Homo sapiens) (P0C1S8 whole entry, looked up): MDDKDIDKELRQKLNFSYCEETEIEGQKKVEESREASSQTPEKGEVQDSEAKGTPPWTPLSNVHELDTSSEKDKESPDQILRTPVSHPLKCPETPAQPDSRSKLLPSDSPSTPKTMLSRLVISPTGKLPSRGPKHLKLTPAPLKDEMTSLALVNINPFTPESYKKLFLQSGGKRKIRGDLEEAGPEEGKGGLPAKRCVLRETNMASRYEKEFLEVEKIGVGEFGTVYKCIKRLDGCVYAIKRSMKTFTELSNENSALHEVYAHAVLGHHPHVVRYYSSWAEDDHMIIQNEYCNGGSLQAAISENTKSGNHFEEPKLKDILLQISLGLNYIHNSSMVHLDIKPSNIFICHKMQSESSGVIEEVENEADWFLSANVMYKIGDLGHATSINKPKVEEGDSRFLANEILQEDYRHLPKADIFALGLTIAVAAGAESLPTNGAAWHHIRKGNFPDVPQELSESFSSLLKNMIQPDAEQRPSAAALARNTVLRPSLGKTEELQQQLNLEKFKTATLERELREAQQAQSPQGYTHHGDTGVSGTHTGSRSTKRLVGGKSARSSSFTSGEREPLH

[44] = target: Serine/threonine-protein kinase 32B (Homo sapiens) (UniProt Q9NY57)
Sequence of Serine/threonine-protein kinase 32B (Homo sapiens) (Q9NY57 whole entry): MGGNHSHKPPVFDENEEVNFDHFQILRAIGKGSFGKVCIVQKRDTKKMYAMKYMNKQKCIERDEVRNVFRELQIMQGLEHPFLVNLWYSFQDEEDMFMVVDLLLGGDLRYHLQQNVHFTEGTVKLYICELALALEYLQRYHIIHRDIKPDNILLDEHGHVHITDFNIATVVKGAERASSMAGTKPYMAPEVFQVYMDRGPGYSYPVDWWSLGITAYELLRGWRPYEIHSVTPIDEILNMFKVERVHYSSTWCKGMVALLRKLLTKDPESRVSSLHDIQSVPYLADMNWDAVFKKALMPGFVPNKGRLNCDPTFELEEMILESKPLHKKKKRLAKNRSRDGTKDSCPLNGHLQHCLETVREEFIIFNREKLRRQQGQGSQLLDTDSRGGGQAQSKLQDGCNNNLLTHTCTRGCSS

[45] = target: Mitogen-activated protein kinase kinase kinase 20 (Homo sapiens) (UniProt Q9NYL2)

Measured: residual activity

Sequence of Tyrosine-protein kinase Blk (Homo sapiens) (P51451 2-505 limits assumed): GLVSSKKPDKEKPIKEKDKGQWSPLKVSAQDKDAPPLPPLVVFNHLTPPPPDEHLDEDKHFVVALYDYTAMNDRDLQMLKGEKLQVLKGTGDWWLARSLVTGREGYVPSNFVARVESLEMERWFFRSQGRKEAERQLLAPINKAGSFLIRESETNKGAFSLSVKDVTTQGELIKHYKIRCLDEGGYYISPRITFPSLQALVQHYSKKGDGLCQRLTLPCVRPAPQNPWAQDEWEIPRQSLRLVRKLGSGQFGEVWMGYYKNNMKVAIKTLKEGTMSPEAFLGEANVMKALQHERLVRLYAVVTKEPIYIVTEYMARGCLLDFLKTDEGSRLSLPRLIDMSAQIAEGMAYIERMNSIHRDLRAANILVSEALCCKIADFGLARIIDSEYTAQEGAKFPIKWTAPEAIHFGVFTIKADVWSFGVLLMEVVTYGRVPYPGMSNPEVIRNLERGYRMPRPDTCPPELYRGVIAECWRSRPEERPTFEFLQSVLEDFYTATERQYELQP

CC(=O)Nc1c(C(C)=O)c(=O)n(C)c2nc(-c3ccc(Cl)cc3Cl)c(-c3ccc(Cl)cc3)cc12 [NAPHTHYRIDINONE]
inactive: [1] 100% | [2] 100% | [3] 100% | [4] 85% | [5] 100% | [6] 100% | [7] 100% | [8] 100% | [9] 100% | [10] 100% | [11] 92% | [12] 100% | [13] 100% | [14] 88% | [15] 100% | [16] 78% | [17] 80% | [18] 100% | [19] 100% | [20] 100% | [21] 100% | [22] 100% | [23] 100% | [24] 100% | [25] 100% | [26] 100% | [27] 100% | [28] 100% | [29] 79% | [30] 100% | [31] 100% | [32] 100% | [33] 100% | [34] 100% | [35] 100% | [36] 93% | [37] 100% | [38] 78% | [39] 100% | [40] 100% | [41] 100% | [42] 100% | [43] 100% | [44] 100% | [45] 100%

CC(=O)c1c(NS(C)(=O)=O)c2cc(-c3ccc(Cl)cc3)c(-c3ccc(Cl)cc3Cl)nc2n(C)c1=O [MRL-CB1-NC]
inactive: [1] 91% | [2] 95% | [3] 100% | [4] 99% | [5] 100% | [6] 94% | [7] 100% | [8] 100% | [9] 92% | [10] 100% | [11] 100% | [12] 100% | [13] 93% | [14] 100% | [15] 100% | [16] 84% | [17] 73% | [18] 97% | [19] 65% | [20] 93% | [21] 100% | [22] 100% | [23] 100% | [24] 100% | [25] 99% | [26] 97% | [27] 92% | [28] 95% | [29] 91% | [30] 100% | [31] 96% | [32] 100% | [33] 100% | [34] 100% | [35] 96% | [36] 61% | [37] 79% | [38] 71% | [39] 100% | [40] 100% | [41] 100% | [42] 100% | [43] 100% | [44] 89% | [45] 92%
